Experimental data: ChEMBL document CHEMBL1201862, “PubChem BioAssay data set” (2004)
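Five concentrations, 48 hours, 96-well plates. GI50 = concentration required for 50% inhibition of growth.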 The source made the active and inactive calls. Rule as the data show it: active = GI50 up to about 1.1 µM and inactive = higher.

Key:
Assay in all cases: inhibition of tumour cell growth, NCI panel, 48 h
MDA-N = test system: MDA-N
SK-MEL-2 = test system: SK-MEL-2
786-0 = test system: 786-0
HCT-116 = test system: HCT-116
MDA-MB-435 = test system: MDA-MB-435
K562 = test system: K562
MCF7 = test system: MCF7
SN12C = test system: SN12C
SF-539 = test system: SF-539
NCI/ADR-RES = test system: NCI/ADR-RES
BT-549 = test system: BT-549
OVCAR-4 = test system: OVCAR-4
COLO 205 = test system: COLO 205
HCC 2998 = test system: HCC 2998
OVCAR-8 = test system: OVCAR-8
SK-OV-3 = test system: SK-OV-3
NCI-H460 = test system: NCI-H460
Malme-3M = test system: Malme-3M
RXF 393 = test system: RXF 393
SR = test system: SR

Measured: GI50

O=C(Nc1sccc1S(=O)(=O)c1ccccc1)c1ccccc1
inactive: MDA-N 3.73 µM | SK-MEL-2 > 100 µM | 786-0 > 100 µM | HCT-116 > 100 µM | MDA-MB-435 3.69 µM | K562 1.91 µM | MCF7 > 100 µM | SN12C > 100 µM | SF-539 > 100 µM | NCI/ADR-RES > 100 µM | BT-549 > 100 µM | OVCAR-4 > 57.9 µM | COLO 205 > 88.1 µM | HCC 2998 > 100 µM | OVCAR-8 > 100 µM | SK-OV-3 > 100 µM | NCI-H460 > 31.6 µM | Malme-3M > 100 µM

O=C(O)CSC1=NC(=O)C2(NN1)c1ccccc1-c1ccccc12
inactive: MDA-N > 10 µM | 786-0 > 10 µM | HCT-116 > 10 µM | MDA-MB-435 > 10 µM | K562 > 10 µM | MCF7 > 10 µM | RXF 393 > 10 µM | SN12C > 10 µM | SF-539 > 10 µM | NCI/ADR-RES > 10 µM | BT-549 > 10 µM | OVCAR-4 > 10 µM | COLO 205 > 10 µM | HCC 2998 > 10 µM | OVCAR-8 > 10 µM | SK-OV-3 > 10 µM | SR > 10 µM | NCI-H460 > 10 µM | Malme-3M > 10 µM

COc1ccc(-c2nc(Nc3ccccc3)sc2Cc2sc(Nc3ccccc3)nc2-c2ccc(OC)cc2)cc1
inactive: MDA-N 46.1 µM | 786-0 98.9 µM | HCT-116 43.4 µM | MDA-MB-435 52.4 µM | K562 5.18 µM | MCF7 8.05 µM | RXF 393 4.35 µM | SN12C 27 µM | SF-539 > 100 µM | NCI/ADR-RES > 100 µM | BT-549 > 100 µM | OVCAR-4 24.3 µM | COLO 205 7.57 µM | HCC 2998 > 100 µM | OVCAR-8 > 100 µM | SK-OV-3 > 100 µM | SR 26 µM | NCI-H460 51.8 µM | Malme-3M > 100 µM

CC(=O)OCCn1c(Cc2ccc(Cl)cc2)nn(C(C)=O)c1=O
inactive: MDA-N > 100 µM | SK-MEL-2 > 100 µM | 786-0 > 100 µM | HCT-116 > 100 µM | MDA-MB-435 > 100 µM | K562 > 100 µM | MCF7 > 100 µM | SN12C > 100 µM | SF-539 > 100 µM | NCI/ADR-RES > 100 µM | BT-549 > 100 µM | OVCAR-4 > 100 µM | COLO 205 > 100 µM | HCC 2998 > 100 µM | OVCAR-8 > 100 µM | SK-OV-3 > 100 µM | NCI-H460 > 100 µM | Malme-3M > 100 µM

O=C(N/N=C/c1ccc(Cl)cc1)c1cc(I)cc(I)c1O
inactive: MDA-N > 100 µM | SK-MEL-2 > 100 µM | 786-0 > 100 µM | HCT-116 > 100 µM | MDA-MB-435 > 100 µM | K562 > 100 µM | MCF7 > 100 µM | RXF 393 > 100 µM | SN12C > 100 µM | SF-539 > 100 µM | NCI/ADR-RES > 100 µM | BT-549 > 100 µM | OVCAR-4 > 100 µM | COLO 205 > 100 µM | OVCAR-8 > 100 µM | SK-OV-3 > 100 µM | SR 76.6 µM

O=S(=O)(O)c1ccc(O)c2ncc(Cl)cc12
inactive: MDA-N > 100 µM | SK-MEL-2 > 100 µM | 786-0 > 100 µM | HCT-116 > 100 µM | MDA-MB-435 > 100 µM | K562 > 100 µM | MCF7 > 100 µM | RXF 393 > 100 µM | SN12C > 100 µM | SF-539 > 100 µM | NCI/ADR-RES > 100 µM | BT-549 > 100 µM | OVCAR-4 > 100 µM | COLO 205 > 100 µM | HCC 2998 > 100 µM | OVCAR-8 > 100 µM | SR > 100 µM | NCI-H460 > 100 µM

O=c1nc2n(cc1/C=C\Br)C1CC(O)C(CO2)O1 (stereo unspecified)
inactive: MDA-N > 100 µM | 786-0 > 100 µM | HCT-116 > 100 µM | MDA-MB-435 > 100 µM | K562 5.16 µM | MCF7 > 100 µM | RXF 393 25 µM | SN12C > 100 µM | SF-539 38.4 µM | NCI/ADR-RES > 100 µM | BT-549 > 100 µM | OVCAR-4 > 100 µM | COLO 205 > 100 µM | HCC 2998 > 100 µM | OVCAR-8 > 100 µM | SK-OV-3 > 100 µM | NCI-H460 > 100 µM | Malme-3M > 100 µM

CSc1ncc2c(n1)-c1ccccc1OC2N1CCCC1 (stereo unspecified)
inactive: MDA-N > 100 µM | SK-MEL-2 > 100 µM | 786-0 > 100 µM | HCT-116 > 100 µM | MDA-MB-435 > 100 µM | K562 60.1 µM | MCF7 71.3 µM | RXF 393 64.6 µM | SN12C 71 µM | SF-539 84.5 µM | NCI/ADR-RES 93.8 µM | BT-549 75 µM | OVCAR-4 21 µM | COLO 205 > 100 µM | OVCAR-8 > 100 µM | SK-OV-3 > 100 µM | SR > 100 µM | NCI-H460 > 100 µM

N=C(N)NCCCC(NC(=O)OCCCCCCn1ccc(N)nc1=O)C(=O)O (stereo unspecified)
inactive: MDA-N > 100 µM | SK-MEL-2 > 100 µM | 786-0 > 100 µM | HCT-116 > 100 µM | MDA-MB-435 > 100 µM | K562 > 100 µM | MCF7 > 100 µM | RXF 393 > 100 µM | SN12C > 100 µM | SF-539 > 100 µM | NCI/ADR-RES 4.75 µM | BT-549 > 100 µM | OVCAR-4 > 100 µM | COLO 205 > 100 µM | HCC 2998 > 100 µM | SK-OV-3 > 100 µM | SR > 100 µM | NCI-H460 > 100 µM

Cc1nc(-c2ccc([N+](=O)[O-])cc2)cn2c1nc1ccccc12
inactive: MDA-N > 100 µM | SK-MEL-2 31.1 µM | 786-0 71 µM | HCT-116 > 100 µM | MDA-MB-435 > 100 µM | K562 > 100 µM | MCF7 58.3 µM | RXF 393 41.6 µM | SN12C > 100 µM | SF-539 > 100 µM | NCI/ADR-RES > 100 µM | BT-549 > 100 µM | OVCAR-4 > 100 µM | COLO 205 > 100 µM | OVCAR-8 > 100 µM | SK-OV-3 18.9 µM | SR > 100 µM | NCI-H460 > 100 µM | Malme-3M > 100 µM

O=[N+]([O-])c1ccc2c(c1)Sc1ccccc1N2CCCCCl
inactive: MDA-N > 100 µM | 786-0 > 100 µM | HCT-116 > 100 µM | MDA-MB-435 > 100 µM | K562 70.6 µM | MCF7 > 100 µM | RXF 393 > 100 µM | SN12C > 100 µM | SF-539 > 100 µM | NCI/ADR-RES > 100 µM | BT-549 > 100 µM | OVCAR-4 3.86 µM | COLO 205 > 100 µM | HCC 2998 > 100 µM | OVCAR-8 > 100 µM | SR > 100 µM | NCI-H460 > 100 µM | Malme-3M > 10 µM

CCCCCCCCCCCCCCCCOCC(CC(F)(F)P(=O)(OCC)OCC)OC(C)=O (stereo unspecified)
inactive: MDA-N 16.9 µM | SK-MEL-2 19.6 µM | 786-0 10.8 µM | HCT-116 3.17 µM | MDA-MB-435 18.6 µM | K562 14.1 µM | MCF7 15.8 µM | RXF 393 23.8 µM | SN12C 19.7 µM | NCI/ADR-RES 16.3 µM | BT-549 15.2 µM | OVCAR-4 14.9 µM | COLO 205 18.2 µM | HCC 2998 8.69 µM | SK-OV-3 19.6 µM | NCI-H460 10.7 µM | Malme-3M 10.6 µM

O=C(NC(CO)CO)c1ccc2cc(C(=O)N3CC(CCl)c4ccc([N+](=O)[O-])cc43)[nH]c2c1 (stereo unspecified)
inactive: MDA-N > 100 µM | SK-MEL-2 > 100 µM | 786-0 > 100 µM | HCT-116 > 100 µM | MDA-MB-435 > 100 µM | K562 > 100 µM | MCF7 > 100 µM | RXF 393 > 100 µM | SN12C > 100 µM | SF-539 > 100 µM | NCI/ADR-RES > 100 µM | BT-549 > 100 µM | OVCAR-4 > 100 µM | COLO 205 50 µM | HCC 2998 > 100 µM | OVCAR-8 > 100 µM | SK-OV-3 > 100 µM | NCI-H460 > 100 µM | Malme-3M > 100 µM

COc1cc(COC(=O)N2CCCCC2C(=O)O)c([N+](=O)[O-])cc1OC (stereo unspecified)
inactive: MDA-N > 100 µM | 786-0 > 100 µM | HCT-116 > 100 µM | MDA-MB-435 > 100 µM | K562 > 100 µM | MCF7 > 100 µM | RXF 393 > 100 µM | SN12C > 100 µM | SF-539 > 100 µM | NCI/ADR-RES > 100 µM | BT-549 > 100 µM | COLO 205 > 100 µM | HCC 2998 > 100 µM | OVCAR-8 > 100 µM | SK-OV-3 > 100 µM | SR > 100 µM | NCI-H460 > 100 µM | Malme-3M > 100 µM

O=C1/C(=C/c2ccco2)N=C(c2ccccc2)N1c1cc2cc(Sc3ccccc3)ccc2[nH]1
inactive: MDA-N 7.21 µM | SK-MEL-2 7.53 µM | 786-0 > 25 µM | HCT-116 > 25 µM | MDA-MB-435 6.55 µM | K562 7.96 µM | MCF7 11 µM | RXF 393 13.1 µM | SN12C 17.4 µM | SF-539 17.9 µM | NCI/ADR-RES 10.2 µM | BT-549 19.4 µM | OVCAR-4 > 25 µM | COLO 205 8.51 µM | OVCAR-8 22.8 µM | SR 5.18 µM | Malme-3M > 25 µM
